Measured values published in US20240383908A1, “SYNTHESIS AND APPLICATION OF PHOSPHATASE DEGRADER” (HINOVA PHARMACEUTICALS INC., priority 2021, published 2024).

What was measured:
SHP2 protein [1] = molecular target: T1, SHP2 protein (Homo sapiens, UniProt Q06124); assay: Degradation activity on SHP2 protein in MIA Paca-2 cells (Western blot, DC50); type: cell-based; design: endogenous in cells; host or cells: MIA Paca-2 cells; settings: read-out: Degradation activity for differenct cell lines MIA Paca-2 (DC50)
T1 sequence (Q06124 1-593): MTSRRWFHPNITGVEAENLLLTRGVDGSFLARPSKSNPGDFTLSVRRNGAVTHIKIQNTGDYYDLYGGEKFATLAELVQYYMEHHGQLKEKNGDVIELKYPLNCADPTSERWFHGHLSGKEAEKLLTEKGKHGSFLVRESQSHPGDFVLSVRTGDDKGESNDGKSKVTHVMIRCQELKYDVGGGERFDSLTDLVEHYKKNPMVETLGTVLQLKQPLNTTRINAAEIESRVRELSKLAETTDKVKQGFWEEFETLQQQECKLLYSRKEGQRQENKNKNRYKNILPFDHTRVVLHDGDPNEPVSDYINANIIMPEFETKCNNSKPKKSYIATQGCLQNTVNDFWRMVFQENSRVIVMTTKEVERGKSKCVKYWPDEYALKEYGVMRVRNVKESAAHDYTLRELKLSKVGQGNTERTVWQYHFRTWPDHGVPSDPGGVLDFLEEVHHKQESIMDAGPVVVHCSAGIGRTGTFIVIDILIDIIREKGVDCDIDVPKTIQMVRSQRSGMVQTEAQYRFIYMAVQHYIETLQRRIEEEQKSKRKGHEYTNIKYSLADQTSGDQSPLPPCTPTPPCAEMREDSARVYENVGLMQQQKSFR
Method in brief: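 DC50 is the concentration degrading 50% of SHP2 relative to DMSO control. It was derived by fitting Western blot band densitometry (anti-SHP2, GAPDH reference) from cells exposed 24 h to 0.1–100 nM compound in 0.1% DMSO.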

SHP2 protein [2] = molecular target: T1, SHP2 protein; assay: Degradation activity on SHP2 protein in NCI-H358 cells (Western blot, DC50); type: cell-based; design: endogenous in cells; settings: read-out: Degradation activity for differenct cell lines NCI-H358 (DC50)
Protocol: (1) MV-411 cells were cultured in the cell culture medium, and then well-growing cells were selected and inoculated in a 12-well plate, with 1 mL/well and 1×10^6 cells/well. The plate was incubated overnight in a 5% CO2 cell incubator at 37° C.
(2) 10 mM storage solution of each drug was prepared using dimethylsulfoxide (DMSO). The stock solution was diluted gradually with DMSO before use, and then 1 μL of the compound solution was added to the cell culture well (to ensure that the DMSO concentration in the culture system was […]), so that the final drug concentration is 100 nM, 10 nM, 3 nM, 1 nM, 0.3 nM, and 0.1 nM. Two wells were set for each concentration. The plate was gently shaken and mixed. Additionally, negative control wells (containing an equal amount of DMSO) and positive control wells were included.
(3) After 24 hours of cultivation, the cells were lysed using RIPA cell lysate, and the proteins were extracted. The protein concentration was measured using a BCA assay kit. 5× concentrated protein buffer was loaded, heated at 100° C. for 5 min, and then the sample was stored at −20° C.
(4) For each well, 30 μg of protein was loaded to polyacrylamide gel for electrophoresis.
(5) The protein was transferred from polyacrylamide gel to PVDF membrane, and sealed at room temperature with 5% skimmed milk for 1 h, which was then incubated with the primary antibodies (Anti-SHP2 rabbit mAb and Anti-GAPDH rabbit mAb) at 4° C. overnight. The membrane was washed three times with TBST solution, 10 minutes for each time. After that, the membrane was incubated with the secondary antibodies (horseradish peroxidase labeled goat anti-rabbit IgG) at room temperature for 2 h, and then washed three times with TBST solution, 10 minutes for each time, followed by exposure.
(6) The images were analyzed with Image J grayscale, and the degradation ratio of protein bands in the test group was calculated, based on the negative control group (DMSO) (100%).
(7) Using the Dose-response-inhibition equation in the data processing software GraphPad Prism 8, the DC50 value was obtained (which represents the drug concentration corresponding to 50% degradation of the target protein).
Using similar methods and different cell lines, the degradation activity of the compound according to the present invention on SHP2 protein of different cell lines was tested under suitable culture conditions.

| SMILES | DC50 (SHP2 protein [1]) [nM] | DC50 (SHP2 protein [2]) [nM] |
| --- | --- | --- |
| CC1(N)CCN(c2cnc(Sc3cccc(NC(=O)CCCCCCCCN4CC=C(c5ccc(C(=O)NCc6ccc7c(c6)CN(C6CCC(=O)NC6=O)C7=O)nc5)C(C)(C)C4)c3)cn2)CC1 (stereo not drawn) [Compound 222] | < 100 | < 100 |
| CC1(N)CCN(c2cnc(Sc3cccc(NC(=O)CCCCCCCCN4CCC(c5ccc(C(=O)NCc6ccc7c(c6)CN(C6CCC(=O)NC6=O)C7=O)nn5)CC4)c3)cn2)CC1 (stereo not drawn) [Compound 218] | < 100 | < 100 |
| CCC1(N)CCN(c2cnc(Sc3cccc(NC(=O)CCCCCCCCN4CCC(c5ccc(C(=O)NCc6ccc7c(c6)CN(C6CCC(=O)NC6=O)C7=O)nn5)CC4)c3)cn2)CC1 (stereo not drawn) [Compound 223] | < 100 | < 100 |
| Cc1ncsc1-c1ccc([C@H](C)NC(=O)[C@@H]2C[C@@H](O)CN2C(=O)[C@@H](NC(=O)c2cnc(N3CCN(CCCCCC(=O)Nc4cccc(Sc5cnc(N6CCC(C)(N)CC6)cn5)c4)CC3)nc2)C(C)(C)C)cc1 [Compound 220] | < 100 | < 100 |
| CC1(N)CCN(c2cnc(Sc3cccc(NC(=O)CCCCCCN4CC5(CCC(c6ccc(C(=O)NCc7ccc8c(c7)CN(C7CCC(=O)NC7=O)C8=O)nc6)CC5)C4)c3)cn2)CC1 (stereo not drawn) [Compound 216] | < 100 | < 100 |
| CC1(N)C2CCC1CN(c1cnc(Sc3cccc(NC(=O)CCCCCCCCN4CCC(c5ccc(C(=O)NCc6ccc7c(c6)CN(C6CCC(=O)NC6=O)C7=O)nn5)CC4)c3)cn1)C2 (stereo not drawn) [Compound 224] | < 100 | < 100 |
| CC1(N)CCN(c2cnc(Sc3cccc(NC(=O)CCCCCCCCN4C[C@H]5C[C@@H]4CN5c4ccc(C(=O)NCc5ccc6c(c5)CN(C5CCC(=O)NC5=O)C6=O)nn4)c3)cn2)CC1 (stereo partly drawn) [Compound 238] | < 100 | < 100 |
| CC1CN(CCCCCCCCC(=O)Nc2cccc(Sc3cnc(N4CCC(C)(N)CC4)cn3)c2)CC=C1c1ccc(C(=O)NC(C)c2ccc3c(c2)CN(C2CCC(=O)NC2=O)C3=O)nc1 (stereo not drawn) [Compound 242] | < 100 | < 100 |
| CC1(N)CCN(c2cnc(Sc3cccc(NC(=O)CCCCc4ccc(N5CCN(c6ccc(C(=O)NCc7ccc8c(c7)CN(C7CCC(=O)NC7=O)C8=O)nn6)CC5)cc4)c3)cn2)CC1 (stereo not drawn) [Compound 244] | < 100 | < 100 |
| Cc1ncsc1-c1ccc([C@H](C)NC(=O)[C@@H]2C[C@@H](O)CN2C(=O)[C@@H](NC(=O)c2cnc(N3CC(OCC(=O)Nc4cccc(Sc5cnc(N6CCC(C)(N)CC6)cn5)c4)C3)nc2)C(C)(C)C)cc1 [Compound 240] |  | > 1000 |
| CC1(N)CCN(c2cnc(Sc3cccc(NC(=O)CCCCOc4ccc(N5CCN(c6ccc(C(=O)NCc7ccc8c(c7)CN(C7CCC(=O)NC7=O)C8=O)nn6)CC5)cc4)c3)cn2)CC1 (stereo not drawn) [Compound 236] |  | < 100 |
| CC1(N)CCN(c2cnc(Sc3cccc(NC(=O)CCCCCCCCN4CCN(c5ccc(C(=O)NCc6ccc7c(c6)CN(C6CCC(=O)NC6=O)C7=O)nn5)CC4C(F)(F)F)c3)cn2)CC1 (stereo not drawn) [Compound 225] |  | < 100 |
| CC1(N)CCN(c2cnc(Sc3cccc(NC(=O)CCCCCCCCN4CCc5cc(C(=O)NCc6ccc7c(c6)CN(C6CCC(=O)NC6=O)C7=O)cnc5C4)c3)cn2)CC1 (stereo not drawn) [Compound 235] |  | < 100 |

More lines, now with the values ahead:

| DC50 (SHP2 protein [1]) [nM] | DC50 (SHP2 protein [2]) [nM] | SMILES |
| --- | --- | --- |
| < 100 | < 100 | Cc1cc(C(=O)NCc2ccc3c(c2)CN(C2CCC(=O)NC2=O)C3=O)ncc1C1=CCN(C2CCN(c3ccc(C(=O)Nc4cccc(Sc5cnc(N6CCC7(CC6)CO[C@@H](C)[C@H]7N)cn5)c4)cc3F)CC2)CC1 (stereo partly drawn) [Compound 465] |
| < 100 | < 100 | CC1(N)CCN(c2cnc(Sc3cccc(NC(=O)c4ccc(N5CCC(N6CC=C(c7cnc(C(=O)NCc8ccc9c(c8)CN(C8CCC(=O)NC8=O)C9=O)cc7Cl)CC6)CC5)cc4)c3)cn2)CC1 (stereo not drawn) [Compound 399] |
| < 100 | < 100 | Cc1cc(N2CCC(N3CC=C(c4cnc(C(=O)NCc5ccc6c(c5)CN(C5CCC(=O)NC5=O)C6=O)cc4C)CC3)CC2)ccc1C(=O)Nc1cccc(Sc2cnc(N3CCC(C)(N)CC3)cn2)c1 (stereo not drawn) [Compound 457] |
| < 100 | < 100 | Cn1nc(C(=O)NCc2ccc3c(c2)CN(C2CCC(=O)NC2=O)C3=O)cc1C1=CCN(CCCCCCCCC(=O)Nc2cccc(Sc3cnc(N4CCC(C)(N)CC4)cn3)c2)CC1 (stereo not drawn) [Compound 246] |
| < 100 | < 100 | CC1(N)CCN(c2cnc(Sc3cccc(NC(=O)c4ccc(N5CCC(N6CCN(c7ccc(C(=O)NCc8ccc9c(c8)CN(C8CCC(=O)NC8=O)C9=O)nn7)CC6)CC5)c(F)c4)c3)cn2)CC1 (stereo not drawn) [Compound 397] |
| < 100 | < 100 | COc1cc(C2=CCN(C3CCN(c4ccc(C(=O)Nc5cccc(Sc6cnc(N7CCC(C)(N)CC7)cn6)c5)cc4)CC3)CC2)ccc1C(=O)NCc1ccc2c(c1)CN(C1CCC(=O)NC1=O)C2=O (stereo not drawn) [Compound 377] |
| 100 to 1000 | < 100 | Cc1cc(N2CCC(N3CC=C(c4cnc(C(=O)NCc5ccc6c(c5)CN(C5CCC(=O)NC5=O)C6=O)c(Cl)c4)CC3)CC2)ccc1C(=O)Nc1cccc(Sc2cnc(N3CCC(C)(N)CC3)cn2)c1 (stereo not drawn) [Compound 443] |
| < 100 | < 100 | CC1(N)CCN(c2cnc(Sc3cccc(NC(=O)c4ccc(N5CCC(N6CCN(c7ccc(C(=O)NCc8ccc9c(c8)CN(C8CCC(=O)NC8=O)C9=O)nc7)CC6)CC5)cn4)c3)cn2)CC1 (stereo not drawn) [Compound 448] |
| < 100 | < 100 | CC1(N)CCN(c2cnc(Sc3cccc(NC(=O)c4csc(N5CCC(N6CC=C(c7ccc(C(=O)NCc8ccc9c(c8)CN(C8CCC(=O)NC8=O)C9=O)nn7)CC6)CC5)n4)c3)cn2)CC1 (stereo not drawn) [Compound 357] |
| < 100 | < 100 | CC1(N)CCN(c2cnc(Sc3cccc(NC(=O)c4ccc(N5CCC(N6CC=C(c7ccc(C(=O)NCc8ccc9c(c8)CN(C8CCC(=O)NC8=O)C9=O)nc7)C6)CC5)c(F)c4)c3)cn2)CC1 (stereo not drawn) [Compound 410] |
| < 100 | < 100 | CC1(N)CCN(c2cnc(Sc3cccc(NC(=O)c4ccc(N5CCC(N6CC=C(c7ccc(C(=O)NCc8ccc9c(c8)CN(C8CCC(=O)NC8=O)C9=O)nc7)CC6)C(F)C5)nc4)c3)cn2)CC1 (stereo not drawn) [Compound 409] |
| < 100 | < 100 | C[C@@H]1CN(c2ccc(C(=O)NCc3ccc4c(c3)CN(C3CCC(=O)NC3=O)C4=O)nn2)CCN1CCCCCCCCC(=O)Nc1cccc(Sc2cnc(N3CCC(C)(N)CC3)cn2)c1 (stereo partly drawn) [Compound 252] |
| < 100 | < 100 | CC1(N)CCN(c2cnc(Sc3cccc(NC(=O)c4ccc(N5CCC(N6CC=C(c7cnc(C(=O)NCc8ccc9c(c8)CN(C8CCC(=O)NC8=O)C9=O)c(Cl)c7)CC6)CC5)cc4)c3)cn2)CC1 (stereo not drawn) [Compound 400] |
| < 100 | < 100 | CC1(N)CCN(c2cnc(Sc3cccc(NC(=O)c4ccc(N5CCC(N6CC=C(c7ccc(C(=O)NCc8ccc9c(c8)CN(C8CCC(=O)NC8=O)C9=O)nc7Cl)CC6)CC5)cc4)c3)cn2)CC1 (stereo not drawn) [Compound 398] |
| > 1000 | > 1000 | CC1(N)CCN(c2cnc(Sc3cccc(NC(=O)c4ccc(-c5ccc(N6CCC7(CC6)CC7C(=O)NCc6ccc7c(c6)CN(C6CCC(=O)NC6=O)C7=O)cc5)cc4)c3)cn2)CC1 (stereo not drawn) [Compound 406] |
| 100 to 1000 | < 100 | CC1(N)CCN(c2cnc(Sc3cccc(NC(=O)c4ccc(N5CCC(N6CC=C(c7ccc(C(=O)NCc8ccc9c(c8)CN(C8CCC(=O)NC8=O)C9=O)cc7)CC6)CC5)c(F)c4)c3)cn2)CC1 (stereo not drawn) [Compound 445] |
